From ChEMBL document CHEMBL1833962, “Benzotriazinone and benzopyrimidinone derivatives as potent positive allosteric AMPA receptor modulators” (2011)
Activity calls are given as the source filed them. The calls are words filed in the database; no cut-off is given here.

Legend:
Rattus norvegicus [1] = organism: Rattus norvegicus; assay: Positive allosteric modulation of AMPA receptor in Sprague-Dawley rat hippocampal neuron assessed as glutamate-induced response pre-treated for 20 secs by patch-clamp electrophysiology; format: tissue-based; details: Hippocampus
Rattus norvegicus [2] = assay: Positive allosteric modulation of AMPA receptor in anesthetized Long-Evans rat assessed as amplitude increase by measuring evoked hilar excitatory post-synaptic field potentials at 1 mg/kg, ip for every 20 secs up to 80 to 100 mins by electrophysiology assay; format: functional; details: route intraperitoneal
Rattus norvegicus [3] = assay: Positive allosteric modulation of AMPA receptor in anesthetized Long-Evans rat assessed as amplitude increase by measuring evoked hilar excitatory post-synaptic field potentials at 5 mg/kg, ip for every 20 secs up to 80 to 100 mins by electrophysiology assay; format: functional
Rattus norvegicus [4] = assay: Positive allosteric modulation of AMPA receptor in anesthetized Long-Evans rat assessed as amplitude increase by measuring evoked hilar excitatory post-synaptic field potentials at 0.5 mg/kg, iv for every 20 secs up to 80 to 100 mins by electrophysiology assay; format: functional
Rattus norvegicus [5] = assay: Positive allosteric modulation of AMPA receptor in anesthetized Long-Evans rat assessed as amplitude increase by measuring evoked hilar excitatory post-synaptic field potentials at 3 mg/kg, ip for every 20 secs up to 80 to 100 mins by electrophysiology assay; format: functional; details: route intraperitoneal
Rattus norvegicus [6] = assay: Positive allosteric modulation of AMPA receptor in anesthetized Long-Evans rat assessed as amplitude increase by measuring evoked hilar excitatory post-synaptic field potentials at 1 mg/kg, iv for every 20 secs up to 80 to 100 mins by electrophysiology assay; format: functional
Rattus norvegicus [7] = assay: Positive allosteric modulation of AMPA receptor in anesthetized Long-Evans rat assessed as amplitude increase by measuring evoked hilar excitatory post-synaptic field potentials at 2 mg/kg, ip for every 20 secs up to 80 to 100 mins; format: functional; details: route intraperitoneal
Rattus norvegicus [8] = assay: Positive allosteric modulation of AMPA receptor in anesthetized Long-Evans rat assessed as amplitude increase by measuring evoked hilar excitatory post-synaptic field potentials at 10 mg/kg, ip for every 20 secs up to 80 to 100 mins by electrophysiology assay; format: functional; details: route intraperitoneal
Rattus norvegicus [9] = assay: Memory enhancing effect in Long-Evans rat assessed as increase in tetanic stimulation of hippocampal long term potentiation at 1 mg/kg, ip; format: functional, organism-based; set-up: dose 1 mg/kg; details: Hippocampus

CD (Rattus norvegicus [1]) | SMILES | Activity (Rattus norvegicus [3]; route intraperitoneal) | other results
1.5 µM | O=C1c2cc3c(cc2OCN1CC(F)(F)c1cccc(F)c1)C(=O)N1CCCC1O3 (stereo unspecified) |  | 
0.0069 µM | C[C@H](Cn1cc(Cl)cn1)n1cnc2cc3c(cc2c1=O)OC1CCCN1C3=O (stereo partly specified) |  | Activity (Rattus norvegicus [2]): 2%
0.45 µM | C[C@H](Cn1nccn1)n1cnc2cc3c(cc2c1=O)OC1CCCN1C3=O (stereo partly specified) | 7% | 
0.004 µM | C#C[C@H](Cc1cccc(F)c1)N1COc2cc3c(cc2C1=O)OC1CCCN1C3=O (stereo partly specified) |  | 
7.4 µM | COC(CN1COc2cc3c(cc2C1=O)OC1CCCN1C3=O)c1ccccc1 (racemic) |  | 
6.7 µM | O=C1c2cc3ncn(C4CC4)c(=O)c3cc2OC2CCCN12 (stereo unspecified) |  | 
0.32 µM | C#C[C@H](Cc1ccccc1)N1COc2cc3c(cc2C1=O)OC1CCCN1C3=O (stereo partly specified) |  | 
0.68 µM | Cn1nnc2cc3c(cc2c1=O)OC1CCCN1C3=O (stereo unspecified) |  | Activity (Rattus norvegicus [3]): inactive
0.0037 µM | O=C1c2cc3ncn(CCc4cccc(F)c4)c(=O)c3cc2OC2CCCN12 (stereo unspecified) |  | Activity (Rattus norvegicus [4]): 21%; Activity (Rattus norvegicus [5]): 27%
0.0031 µM | O=C1c2cc3nnn(CCc4cccc(F)c4)c(=O)c3cc2OC2CCCN12 (stereo unspecified) | 24% | Activity (Rattus norvegicus [6]): 24%
0.004 µM | C#C[C@H](Cc1cccc(F)c1)n1nnc2cc3c(cc2c1=O)OC1CCCN1C3=O (stereo partly specified) |  | Activity (Rattus norvegicus [7]): 5%
0.19 µM | C[C@H](Cn1cnnn1)n1nnc2cc3c(cc2c1=O)OCN(C1CC1)C3=O | 7% | 
17 µM | CC(C)(CN1COc2cc3c(cc2C1=O)OC1CCCN1C3=O)c1cccc(F)c1 (stereo unspecified) |  | 
0.13 µM | C#CCn1cnc2cc3c(cc2c1=O)OC1CCCN1C3=O (stereo unspecified) |  | Activity (Rattus norvegicus [3]): inactive
1 µM | O=C1c2cc3c(cc2OCN1CC(O)c1ccccc1)C(=O)N1CCCC1O3 (racemic) |  | 
0.13 µM | O=C1c2cc3ncn(CCc4ccccc4)c(=O)c3cc2OC2CCCN12 (stereo unspecified) | 2% | 
0.1 µM | O=C1c2cc3nnn(CCn4cccn4)c(=O)c3cc2OC2CCCN12 (stereo unspecified) |  | Activity (Rattus norvegicus [3]): inactive
0.17 µM | O=C1c2cc3ncn(CCn4cccn4)c(=O)c3cc2OC2CCCN12 (stereo unspecified) |  | Activity (Rattus norvegicus [3]): inactive
0.0084 µM | CC[C@H](Cn1cc(Cl)cn1)n1cnc2cc3c(cc2c1=O)OC1CCCN1C3=O (stereo partly specified) |  | Activity (Rattus norvegicus [5]): 4%

CD (Rattus norvegicus [1]) | SMILES | Activity (Rattus norvegicus [3]; route intraperitoneal) | other results
0.015 µM | C[C@H](Cn1cnnn1)n1nnc2cc3c(cc2c1=O)OC1CCCN1C3=O (stereo partly specified) | 10% | 
0.28 µM | COC(=O)[C@H](Cc1ccccc1)N1COc2cc3c(cc2C1=O)OC1CCCN1C3=O (stereo partly specified) |  | 
0.25 µM | O=C1c2cc3c(cc2OCN1CCc1ccccc1)C(=O)N1CCCC1O3 (stereo unspecified) |  | 
inactive | C[C@@H](Cn1cc(Cl)cn1)n1cnc2cc3c(cc2c1=O)OC1CCCN1C3=O (stereo partly specified) |  | 
0.0029 µM | C#C[C@H](Cc1cc(F)cc(F)c1)n1nnc2cc3c(cc2c1=O)OC1CCCN1C3=O (stereo partly specified) | 34% | 
48 µM | COC(=O)[C@@H](Cc1ccccc1)N1COc2cc3c(cc2C1=O)OC1CCCN1C3=O (stereo partly specified) |  | 
0.2 µM | C#C[C@H](Cc1cccc(F)c1)n1nnc2cc3c(cc2c1=O)OCN(C1CC1)C3=O | 10% | 
0.14 µM | C#CCn1nnc2cc3c(cc2c1=O)OC1CCCN1C3=O (stereo unspecified) |  | Activity (Rattus norvegicus [3]): inactive
0.042 µM | C[C@H](Cn1ncnn1)n1nnc2cc3c(cc2c1=O)OC1CCCN1C3=O (stereo partly specified) | 39% | 
0.03 µM | C[C@H](Cn1ncnn1)n1cnc2cc3c(cc2c1=O)OC1CCCN1C3=O (stereo partly specified) | 22% | 
0.006 µM | C#C[C@H](Cc1cccc(F)c1)n1cnc2cc3c(cc2c1=O)OC1CCCN1C3=O (stereo partly specified) |  | Activity (Rattus norvegicus [7]): 12%
100 µM | O=C(CN1COc2cc3c(cc2C1=O)OC1CCCN1C3=O)c1ccccc1 (stereo unspecified) |  | 
0.4 µM | O=C1c2cc3nnn(C4CC4)c(=O)c3cc2OC2CCCN12 (stereo unspecified) |  | Activity (Rattus norvegicus [8]): 3%
0.011 µM | O=C1c2cc3c(cc2OCN1CCc1cccc(F)c1)C(=O)N1CCCC1O3 (stereo unspecified) | 2% | Activity (Rattus norvegicus [6]): 28%
0.46 µM | C[C@H](Cn1ncnn1)n1nnc2cc3c(cc2c1=O)OCN(C1CC1)C3=O | 33% | Activity (Rattus norvegicus [9]): Active
0.002 µM | C#C[C@H](Cc1cc(F)cc(F)c1)n1cnc2cc3c(cc2c1=O)OC1CCCN1C3=O (stereo partly specified) |  | Activity (Rattus norvegicus [2]): 30%
0.019 µM | O=C1c2cc3ncn(CCn4cc(Cl)cn4)c(=O)c3cc2OC2CCCN12 (stereo unspecified) |  | Activity (Rattus norvegicus [5]): 3%
0.021 µM | CC[C@H](Cc1cccc(F)c1)n1nnc2cc3c(cc2c1=O)OC1CCCN1C3=O (stereo partly specified) | 2% | 
